Results reported in patent US8354414B2, “Substituted bicyclic pyrimidines” (Cephalon, Inc, priority 2006, dated 2013).
Like-named read-outs stand apart in the source and are kept apart here.

Columns and labels:
[1] = molecular target: T1, His6-GSK-3β (Homo sapiens, UniProt P49841); assay: Inhibition of His6-GSK-3β kinase activity (ELISA-based format, time-resolved fluorescence readout); format: biochemical; conditions: for IC50: read-out: GSK3β IC50
T1 construct: made in house; host or cells: Sf21 insect cells (baculovirus)
Summary of the method: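 Plate-bound recombinant GST-Rb substrate was phosphorylated for 30 min at 37° C by baculovirus-expressed His6-GSK-3β (200 ng/ml) at 20 μM ATP, 10 mM MgCl2, 2.5% DMSO. Europium time-resolved fluorescence of anti-phospho-Ser780 Rb signal gave inhibition, fitted to IC50.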

[2] = molecular target: T2, CDK5/GST-p25 (Homo sapiens, UniProt Q00535); assay: Inhibition of CDK5/GST-p25 kinase activity (ELISA with time-resolved fluorescence readout); format: biochemical
T2 construct: The final construct, encoding for full-length human CDK5; made in house; host or cells: Sf21 insect cells (baculovirus co-infection)
Summary of the method: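 The substrate, GST-Rb(773-928), was immobilised on plates and phosphorylated for 20 min at 37 °C by 2 ng/ml CDK5/GST-p25 in HEPES pH 7.2 with 10 µM ATP and 10 mM MgCl2. Both proteins were human and co-expressed in insect cells. Ser-780 phosphorylation was read by europium time-resolved fluorescence and converted to IC50.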

T2 sequence (Q00535 whole entry): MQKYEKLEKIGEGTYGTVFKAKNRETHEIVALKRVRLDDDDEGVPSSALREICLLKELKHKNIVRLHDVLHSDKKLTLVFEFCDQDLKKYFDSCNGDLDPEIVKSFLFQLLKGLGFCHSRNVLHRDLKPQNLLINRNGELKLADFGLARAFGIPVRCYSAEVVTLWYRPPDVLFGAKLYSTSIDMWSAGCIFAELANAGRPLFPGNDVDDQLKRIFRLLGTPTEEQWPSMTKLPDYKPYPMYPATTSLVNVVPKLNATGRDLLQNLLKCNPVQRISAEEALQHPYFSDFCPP
T2 sequence (Q15078 108-307 partner limits assumed): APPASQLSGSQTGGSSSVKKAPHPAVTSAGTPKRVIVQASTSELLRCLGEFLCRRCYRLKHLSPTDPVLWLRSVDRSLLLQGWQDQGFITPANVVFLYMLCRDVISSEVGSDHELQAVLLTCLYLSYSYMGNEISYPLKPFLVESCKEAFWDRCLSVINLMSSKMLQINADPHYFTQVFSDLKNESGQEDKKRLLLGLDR
T1 sequence (P49841 2-419): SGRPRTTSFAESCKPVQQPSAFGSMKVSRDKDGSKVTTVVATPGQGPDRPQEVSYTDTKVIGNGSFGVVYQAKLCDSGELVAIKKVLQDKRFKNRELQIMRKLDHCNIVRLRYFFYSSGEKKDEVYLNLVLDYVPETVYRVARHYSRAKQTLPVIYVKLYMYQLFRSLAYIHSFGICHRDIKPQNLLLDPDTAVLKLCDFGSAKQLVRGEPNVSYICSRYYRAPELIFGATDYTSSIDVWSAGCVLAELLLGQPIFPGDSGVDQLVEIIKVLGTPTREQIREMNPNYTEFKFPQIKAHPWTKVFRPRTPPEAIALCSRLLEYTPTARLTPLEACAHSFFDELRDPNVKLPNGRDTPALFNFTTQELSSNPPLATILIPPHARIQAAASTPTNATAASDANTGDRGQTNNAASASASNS

Compound	IC50 ([1]; class symbols) [µM]	IC50 ([2]; class symbols) [µM]	melting point	IC50 ([2]; numeric bounds) [µM]	GSK3β % @10 μM ([1]; @10 μM) [% @10 μM]	IC50 ([1]; numeric bounds) [µM]
N#Cc1cccc2c1NC(=O)C2c1ncnc2c1cnn2C1CCCCC1 (stereo not drawn) [Example 70, 3-(1-Cyclohexyl-1H-pyrazolo [3,4-d]pyrimidin-4-yl)-2-oxo-2,3-dihydro-1H-indole-7-carbonitrile]	> 10	> 10	> 300 °C	–	–	–
CC(=O)NCCNc1nc(C2C(=O)Nc3ccccc32)c2cn(C3CCCC3)nc2n1 (stereo not drawn) [Example 158, 3-(2-cyclopentyl-6-(2-acetylamino-ethylamino)-2H-pyrazolo[3,4-d]pyrimidin-4-yl)-1,3-dihydro-indol-2-one]	0.3 to 3	–	238 to 240 °C	> 3	–	–
CCCn1ncc2c(C3C(=O)Nc4ccc(C#N)cc43)ncnc21 (stereo not drawn) [Example 93, 3-(1-propyl-1H-pyrazolo[3,4-d]pyrimidin-4-yl)-2-oxo-2,3-dihydro-1H-indole-5-carbonitrile]	> 10	> 10	> 300 °C	–	–	–
O=C1Nc2cc(F)ccc2C1c1ncnc2nn(C3CCCCC3)cc12 (stereo not drawn) [Example 50, 3-(2-cyclohexyl-2H-pyrazolo[3,4-d]pyrimidin-4-yl)-6-fluoro-1,3-dihydro-indol-2-one]	0.3 to 3	0.3 to 3	297 to 300 °C	–	–	–
O=C1Nc2ccccc2C1c1nc(NCCc2cccnc2)nc2nn(C3CCCC3)cc12 (stereo not drawn) [Example 155, 3-[2-cyclopentyl-6-(2-pyridin-3-yl-ethylamino)-2H-pyrazolo [3,4-d]pyrimidin-4-yl]-1,3-dihydro-indol-2-one]	0.3 to 3	–	258 to 260 °C	> 1	–	–
O=C1Nc2ccc(Cl)cc2C1c1nc(NCCc2cccnc2)nc2nn(C3CCCC3)cc12 (stereo not drawn) [Example 279, 5-Chloro-3-[2-cyclopentyl-6-(2-pyridin-3-yl-ethylamino)-2H-pyrazolo[3,4-d]pyrimidin-4-yl]-1,3-dihydro-indol-2-one]	< 0.3	0.3 to 3	277 to 281 °C	–	–	–
O=C1Nc2ccc(Br)cc2C1c1ncnc2c1cnn2C1CCCCC1 (stereo not drawn) [Example 75, 5-Bromo-3-(1-Cyclohexyl-1H-pyrazolo[3,4-d]pyrimidin-4-yl)-1,3-dihydro-indol-2-one]	> 10	> 10	305 to 308 °C	–	–	–
CCOCCn1cc2c(C3C(=O)Nc4ccc(Br)cc43)nc(Cl)nc2n1 (stereo not drawn) [Example 236, 5-Bromo-3-[6-chloro-2-(2-ethoxy-ethyl)-2H-pyrazolo [3,4-d]pyrimidin-4-yl)-1,3-dihydro-indol-2-one]	> 10	> 10	260 to 263 °C	–	–	–
CC(C)CNc1nc(C2C(=O)Nc3ccc(C(F)(F)F)cc32)c2cn(C3CCCC3)nc2n1 (stereo not drawn) [Example 249, 3-(2-Cyclopentyl-6-isobutylamino-2H-pyrazolo[3,4-d]pyrimidin-4-yl)-5-trifluoromethyl-1,3-dihydro-indol-2-one]	–	> 10	282 to 285 °C	–	52	–
CN(C)CCCNc1nc(C2C(=O)Nc3ccc(Cl)cc32)c2cn(C3CCCC3)nc2n1 (stereo not drawn) [Example 377, 5-Chloro-3-[2-cyclopentyl-6-(3-dimethylamino-propylamino)-2H-pyrazolo [3,4-d]pyrimidin-4-yl]-1,3-dihydro-indol-2-one]	0.3 to 3	> 10	176 to 179 °C	–	–	–
CCCn1cc2c(C3C(=O)Nc4ccc(S(=O)(=O)N(C)C)cc43)nc(Cl)nc2n1 (stereo not drawn) [Example 204, 3-(6-Chloro-2-propyl-2H-pyrazolo [3,4-d]pyrimidin-4-yl)-2-oxo-2,3-dihydro-1H-indole-5-sulfonic acid dimethylamide]	–	0.3 to 3	> 300 °C	–	–	> 3
O=C1Nc2c(cc([N+](=O)[O-])cc2[N+](=O)[O-])C1c1ncnc2c1cnn2C1CCCC1 (stereo not drawn) [Example 60, 3-(1-cyclopentyl-1H-pyrazolo[3,4-d]pyrimidin-4-yl)-5,7-dinitro-1,3-dihydro-indol-2-one]	> 10	> 10	242 to 246 °C	–	–	–
CCCn1cc2c(C3C(=O)Nc4ccc(Br)cc43)nc(Cl)nc2n1 (stereo not drawn) [Example 188, 5-Bromo-3-(6-chloro-2-propyl-2H-pyrazolo[3,4-d]pyrimidin-4-yl)-1,3-dihydro-indol-2-one]	–	> 10	> 300 °C	–	–	> 3
O=C1Nc2c(F)cc(F)cc2C1c1ncnc2c1cnn2C1CCCC1 (stereo not drawn) [Example 61, 3-(1-cyclopentyl-1H-pyrazolo[3,4-d]pyrimidin-4-yl)-5,7-difluoro-1,3-dihydro-indol-2-one]	> 10	> 10	> 300 °C	–	–	–
CCCn1cc2c(C3C(=O)Nc4ccc(S(=O)(=O)N(C)C)cc43)nc(NCCN(C)C)nc2n1 (stereo not drawn) [Example 205, 3-[6-(2-Dimethylamino-ethylamino)-2-propyl-2H-pyrazolo [3,4-d]pyrimidin-4-yl]-2-oxo-2,3-dihydro-1H-indole-5-sulfonic acid dimethylamide]	> 10	–	259 to 263 °C	> 3	–	–
CC(C)Nc1nc(C2C(=O)Nc3ccccc32)c2cn(C3CCCC3)nc2n1 (stereo not drawn) [Example 245, 3-(2-Cyclopentyl-6-isopropylamino-2H-pyrazolo[3,4-d]pyrimidin-4-yl)-1,3-dihydro-indol-2-one]	–	> 10	303 to 305 °C	–	–	> 3
N#Cc1ccc2c(c1)C(c1ncnc3c1cnn3C1CCCCC1)C(=O)N2 (stereo not drawn) [Example 68, 3-(1-Cyclohexyl-1H-pyrazolo [3,4-de]pyrimidin-4-yl)-2-oxo-2,3-dihydro-1H-indole-5-carbonitrile]	> 10	> 10	> 300 °C	–	–	–
C[C@H](O)CNc1nc(C2C(=O)Nc3ccc(Br)cc32)c2cn(C)nc2n1 (stereo partly drawn) [Example 304, 5-Bromo-3-[6-(2-(S)-hydroxypropylamino)-2-methyl-2H-pyrazolo [3,4-d]pyrimidin-4-yl]-1,3-dihydro-indol-2-one]	< 0.3	< 0.3	338 to 340 °C	–	–	–
CCCCCn1cc2c(C3C(=O)Nc4ccc(C#N)cc43)nc(NCc3ccncc3)nc2n1 (stereo not drawn) [Example 292, 2-Oxo-3-{2-pentyl-6-[(pyridin-4-ylmethyl)-amino]-2H-pyrazolo [3,4-d]pyrimidin-4-yl}-2,3-dihydro-1H-indole-5-carbonitrile]	< 0.3	< 0.3	288 to 290 °C (dec.)	–	–	–

More lines, now with the values ahead:

IC50 ([1]; class symbols) [µM]	IC50 ([2]; class symbols) [µM]	melting point	IC50 ([2]; numeric bounds) [µM]	GSK3β % @10 μM ([1]; @10 μM) [% @10 μM]	IC50 ([1]; numeric bounds) [µM]	Compound
< 0.3	< 0.3	292 to 293 °C	–	–	–	O=C1Nc2ccc(C(F)(F)F)cc2C1c1ncnc2nn(C3CCCC3)cc12 (stereo not drawn) [Example 34, 3-(2-Cyclopentyl-2H-pyrazolo [3,4-d]pyrimidin-4-yl)-5-trifluoromethyl-1,3-dihydro-indol-2-one]
< 0.3	< 0.3	> 300 °C	–	–	–	CCCn1cc2c(C3C(=O)Nc4ccc(C#N)cc43)ncnc2n1 (stereo not drawn) [Example 96, 3-(2-propyl-1H-pyrazolo[3,4-d]pyrimidin-4-yl)-2-oxo-2,3-dihydro-1H-indole-5-carbonitrile]
< 0.3	< 0.3	> 300 °C	–	–	–	CCCn1cc2c(C3C(=O)Nc4ccc(C#N)cc43)nc(NCCc3ccccn3)nc2n1 (stereo not drawn) [Example 187, 2-Oxo-3-[2-propyl-6-(2-pyridin-2-yl-ethylamino)-2H-pyrazolo[3,4-d]pyrimidin-4-yl]-2,3-dihydro-1H-indole-5-carbonitrile]
< 0.3	< 0.3	302 to 306 °C	–	–	–	CCCn1cc2c(C3C(=O)Nc4ccc(Cl)cc43)ncnc2n1 (stereo not drawn) [Example 98, 5-Chloro-3-(2-propyl-2H-pyrazolo[3,4-d]pyrimidin-4-yl)-1,3-dihydro-indol-2-one]
< 0.3	< 0.3	> 300 °C	–	–	–	CC(=O)NCCNc1nc(C2C(=O)Nc3ccc(C#N)cc32)c2cn(C3CCCC3)nc2n1 (stereo not drawn) [Example 151, 3-(6-(2-acetylamino-ethylamino)-2-cyclopentyl-2H-pyrazolo [3,4-d]pyrimidin-4-yl)-2-oxo-2,3-dihydro-1H-indole-5-carbonitrile]
> 10	< 0.3	> 320 °C	–	–	–	Cn1ncc2c(C3C(=O)Nc4ccc(Cl)cc43)ncnc21 (stereo not drawn) [Example 86, 5-Chloro-3-(1-methyl-1H-pyrazolo[3,4-d]pyrimidin-4-yl)-1,3-dihydro-indol-2-one]
< 0.3	< 0.3	> 300 °C	–	–	–	CCCn1cc2c(C3C(=O)Nc4ccc(Br)cc43)nc(NCCCN)nc2n1 (stereo not drawn) [Example 199, 3-[6-(3-Amino-propylamino)-2-propyl-2H-pyrazolo [3,4-d]pyrimidin-4-yl]-5-bromo-1,3-dihydro-indol-2-one]
< 0.3	< 0.3	310 °C (dec.)	–	–	–	CCCn1cc2c(C3C(=O)Nc4ccc(Br)cc43)nc(NC[C@@H](C)O)nc2n1 (stereo partly drawn) [Example 195, 5-Bromo-3-[6-((R)-2-hydroxy-propylamino)-2-propyl-2H-pyrazolo [3,4-d]pyrimidin-4-yl]-1,3-dihydro-indol-2-one]
< 0.3	< 0.3	277 to 281 °C	–	–	–	CCCn1cc2c(C3C(=O)Nc4ccc(Br)cc43)nc(NCc3cccnc3)nc2n1 (stereo not drawn) [Example 196, 5-Bromo-3-{2-propyl-6-[(pyridin-3-ylmethyl)-amino]-2H-pyrazolo[3,4-d]pyrimidin-4-yl}-1,3-dihydro-indol-2-one]
